Results as given in PMC11443511, “Discovery of anti-infective compounds against Mycobacterium marinum after biotransformation of simple natural stilbenes by a fungal secretome” (Frontiers in Microbiology, 2024).
“Also recorded” adds a separate entry of the source. Where two headings read alike, the source gives them in different places.

Key:
[1] = system: Mycobacterium marinum (Mm) in infection of Dictyostelium discoideum (Mm-inf); test: Anti-infective assay, growth of Mm during infection of Dd (Mm-inf, luminescence); assay type: cell-based; settings: for IC50: 72 h; for activity at 20 µM: vehicle = 1, baseline = 0, hit cut-off <0.5; for pro-infective effect on Mm-inf (in words): between 0.4 and 3.3 μM
[2] = system: Mycobacterium marinum in broth (Mm-broth); test: Antibacterial assay, growth of Mm in broth (Mm-broth, luminescence); assay type: cell-based; settings: for IC50 / MIC: Mycobacterium marinum; for IC50: read-out: IC50 Mm-broth; for activity on Mm-broth (in words): at respective maximal tested concentration; for activity on Mm in broth (in words): screen at 20 μM or dose-response curve; for normalized residual growth of Mm-broth: 20 μM, vehicle = 1, baseline = 0
[3] = system: Dictyostelium discoideum (Dd-inf); test: microbe, parasite or virus in culture; assay type: cell-based; settings: for normalized residual growth of Dd-inf: 20 μM, vehicle = 1, baseline = 0; for IC50: Dictyostelium discoideum, 72 h, read-out: IC50 Dd-inf (Dd growth)
Dd Ax2(ka) cells = test: Anti-infective assay with high-content microscopy, area of uninfected and infected Dd; settings: 20, 10, 2.5 μM, up to 48 h
Procedure: (§1) To monitor both the host and pathogen during the course of infection in a quantitative manner, Dd Ax2(ka) cells expressing mCherry knocked-in at the act5 locus ([Paschke et al., 2019]) were infected as described above with Mm WT stably expressing GFP (Msp:12-GFP). As described above, the day before the experiment, 10^7 amoebae were plated in a 10 cm Petri dish. On the day of the experiment, infection was performed, as described above, in HL5-C at MOI 25 by spinoculation. This was followed by eight washes in HL5-C to clear a maximum of non-internalized bacteria. The infected amoebae were detached mechanically and resuspended in HL5-C with 0.75 U/mL penicillin and 0.75 μg/mL of streptomycin (Gibco). Compounds were diluted in HL5-C to a 10x stock of the final assay concentration and pre-plated in 20 μL into the respective wells of a 96-well μ-plate (iBIDI 96-well μ-plate, 89,626). Subsequently, 7,500 cells per well were added in a volume of 180 μL. Every condition has been plated in at least three technical replicates and at least three biological replicates. The 96-well plate was sealed with a gas permeable seal (4titude, 4ti-0516/96) and centrifuged briefly.
(§2) Microscopy images were acquired at 25°C with a 40X plan Apo objective at selected time points over 48 h on the ImageXpress Micro C® automated microscope (Molecular Devices) in wide field mode. Focus was obtained automatically by autofocusing on the well bottom and plate bottom, at every well and every time point. In a grid of 4 × 5, 20 images per well, corresponding to a range of 500–6,000 cells, have been taken using the Texas-Red channel for Dd expressing mCherry and FITC channel for Mm expressing GFP in each experiment. Image analysis was performed using MetaXpress Custom Module editor software. Objects were effectively segmented by size and intensity. More precisely, amoebae were segmented using a “find blob module” using the Texas-Red channel. To segment the bacteria, the FITC image was first subjected to a light deconvolution with a top hat filter and then segmented using a “find blob module.” Intracellular bacteria and infected amoebae were determined by associating the mask of the amoebae and the bacteria. Several parameters such as intracellular and extracellular bacterial area sum, amoebae area sum, averaged and integrated fluorescence intensity and feature counts of bacteria and amoeba were extracted. The growth curves for the area sum of uninfected amoebae, infected amoebae and intracellular bacteria of independent biological replicates were averaged and plotted using GraphPad Prism (Version 8.0.1).
(§3) Both uninfected Dd and Dd infected with Mm were treated with 20, 10 or 2.5 μM of 17 or 19 and the infection was monitored by collecting microscopy images at five time points for up to 48 h.

Mm [4] = test: Checkerboard assay for synergy with antibiotics
Source text: We tested this compound for synergy with rifampicin and isoniazid in a checkerboard assay and additionally tested for synergy between rifampicin and isoniazid.

intracellular Mm = test: Anti-infective assay with high-content microscopy, area of intracellular Mm; settings: 20, 10, 2.5 μM, up to 48 h
Procedure: as §1, §2, §3

Mm [5] = settings: MIC90 from clinical isolates, cited from earlier work
[6] = read-out: IC50 Mm-inf, 72 h, AUC of luminescence normalized to vehicle, 4PL regression
[7] = at respective maximal tested concentration
[8] = 20 μM, read-out: normalized residual growth of Mm-inf
[9] = AUC of luminescence normalized to vehicle, 4PL regression, read-out: IC50 Mm-inf
[10] = read-out: normalized residual growth of Mm-inf, 20 μM
[11] = converted from μM, read-out: MIC in infection
[12] = lowest concentration with normalized residual growth plus one SD ≤0, 72 h, read-out: MIC Mm-inf
[13] = ref Woods and Clinical and Laboratory Standards Institute, 2011
[14] = 72 h, 7H9 broth, 32°C, read-out: MIC Mm-broth

COc1nc2ccc(Br)cc2cc1[C@@H](c1ccccc1)[C@@](O)(CCN(C)C)c1cccc2ccccc12 [bedaquiline]
IC50 [1, 6]: 4 µM | activity on Mm-inf (in words) [1, 7]: sterilizing activity | IC50 ([2]; 72 h): 1.6 µM | MIC ([2]; 72 h, read-out: MIC Mm-broth): 3.3 µM | activity on Mm-broth (in words) [2]: sterilizing activity

Oc1ccc(/C=C/c2cc(O)cc(O)c2)cc1 [compound 1, resveratrol]
activity on Mm-inf (in words) ([1]; dose-response curve): lack of activity

COc1cc(/C=C/c2ccc(O)cc2)cc(OC)c1 [compound 2, pterostilbene]
activity at 20 µM [1, 8]: 28% | IC50 [1, 9]: 19.8 µM | activity on Mm-inf (in words) ([1]; dose-response curve): validated anti-infectives without antibiotic properties | normalized residual growth of Dd-inf [3]: –0.16 | IC50 ([3]; dose-response curve): 11.1 µM | activity on Mm in broth (in words) [2]: inactive on Mm in broth

COc1cc(O)cc(/C=C/c2ccc(O)cc2)c1 [compound 3, pinostilbene]
activity on Mm-inf (in words) ([1]; dose-response curve): active on Mm-inf, at high concentrations (>20 μM)

COc1cc(/C=C/c2cc(O)cc(O)c2)ccc1O [compound 4, isorhapontigenin]
activity on Mm-inf (in words) ([1]; dose-response curve): lack of activity

Oc1ccc(C2Oc3ccc(C=Cc4cc(O)cc(O)c4)cc3C2c2cc(O)cc(O)c2)cc1 (stereo not drawn) [compound 11, trans-δ-viniferin]
activity at 20 µM [1, 8]: 110% | normalized residual growth of Mm-broth [2]: 1

COc1cc(OC)cc(C2c3cc(C=Cc4cc(O)cc(O)c4)ccc3OC2c2ccc(O)cc2)c1 (stereo not shown) [compound 17]
IC50 [1, 9]: 18.1 µM | activity on Mm-inf (in words) ([1]; at 20 μM): passed again the 0.5 cut-off | activity on Mm-inf (in words) ([1]; dose-response curve): dose-dependent activity; also recorded: validated anti-infectives without antibiotic properties | IC50 ([1]; read-out: IC50 Mm-inf, AUC of luminescence normalized to vehicle, 4PL regression): 18.9 µM | activity at 20 µM [1, 10]: 34% | growth of infected Dd (segmented area, in words) (Dd Ax2(ka) cells): this effect was weaker | synergy with rifampicin and isoniazid (in words) (Mm [4]): did not find striking synergy | normalized residual growth of Dd-inf [3]: 0.91 | growth of intracellular Mm (segmented area, in words) (intracellular Mm): this effect was weaker | activity on Mm in broth (in words) [2]: no activity on Mm in broth; also recorded: without antibiotic activity; also recorded: did not show any growth inhibition

COc1cc(C=Cc2ccc3c(c2)C(c2cc(O)cc(O)c2)C(c2ccc(O)cc2)O3)cc(OC)c1 (stereo not shown) [compound 19]
IC50 [1, 9]: 9 µM | activity on Mm-inf (in words) ([1]; at 20 μM): passed again the 0.5 cut-off | activity on Mm-inf (in words) ([1]; dose-response curve): dose-dependent activity; also recorded: validated anti-infectives without antibiotic properties | activity at 20 µM [1, 10]: -32% | growth of infected Dd (segmented area, in words) (Dd Ax2(ka) cells): almost completely inhibited | growth of uninfected Dd (segmented area, in words) (Dd Ax2(ka) cells): significantly reduced | normalized residual growth of Dd-inf [3]: –0.22 | IC50 ([3]; dose-response curve): 12.1 µM | lowest measured value of Dd-inf (normalized residual growth) ([3]; dose-response curve): −0.40 | growth of intracellular Mm (segmented area, in words) (intracellular Mm): almost completely inhibited | activity on Mm in broth (in words) [2]: no activity on Mm in broth; also recorded: without antibiotic activity; also recorded: did not show any growth inhibition

COc1cc(C=Cc2ccc3c(c2)C(c2cc(OC)cc(OC)c2)C(c2ccc(O)cc2)O3)cc(OC)c1 (stereo not shown) [compound 21]
activity at 20 µM [1, 8]: 140% | normalized residual growth of Mm-broth [2]: 1

Oc1ccc([C@H]2Oc3ccc(/C=C\c4cc(O)cc(O)c4)cc3[C@@H]2c2cc(O)cc(O)c2)cc1 [compound 55]
activity on Mm-inf (in words) ([1]; at 20 μM): inactive

COc1cc(OC)cc([C@H]2c3cc(/C=C\c4cc(O)cc(O)c4)ccc3O[C@@H]2c2ccc(O)cc2)c1 [compound 56]
IC50 [1, 6]: 19.7 µM

COc1cc(/C=C\c2ccc3c(c2)[C@H](c2cc(O)cc(O)c2)[C@@H](c2ccc(O)cc2)O3)cc(OC)c1 [compound 57]
IC50 [1, 6]: 9.8 µM

COc1cc(/C=C\c2ccc3c(c2)[C@H](c2cc(OC)cc(OC)c2)[C@@H](c2ccc(O)cc2)O3)cc(OC)c1 [compound 58]
activity on Mm-inf (in words) ([1]; at 20 μM): inactive

COc1ccc([C@H]2Oc3ccc(/C=C/c4cc(O)cc(O)c4)cc3[C@@H]2c2cc(O)cc(OC)c2)cc1 [compound 62]
IC50 [1, 9]: 13.4 µM | lowest measured value of Dd-inf (normalized residual growth) ([3]; dose-response curve): 0.42

COc1ccc([C@H]2Oc3ccc(/C=C/c4cc(O)cc(OC)c4)cc3[C@@H]2c2cc(O)cc(O)c2)cc1 [compound 63]
IC50 [1, 9]: 8.6 µM | growth of uninfected Dd (segmented area, in words) (Dd Ax2(ka) cells): only a slight growth inhibition at 20 μM | lowest measured value of Dd-inf (normalized residual growth) ([3]; dose-response curve): 0.8 | growth of intracellular Mm (segmented area, in words) (intracellular Mm): infection was well controlled

COc1cc(O)cc(/C=C/c2ccc3c(c2)[C@H](c2cc(O)cc(OC)c2)[C@@H](c2ccc(O)cc2)O3)c1 [compound 64]
IC50 [1, 9]: 8 µM | growth of uninfected Dd (segmented area, in words) (Dd Ax2(ka) cells): only a slight growth inhibition at 20 μM | lowest measured value of Dd-inf (normalized residual growth) ([3]; dose-response curve): 0.62 | growth of intracellular Mm (segmented area, in words) (intracellular Mm): infection was well controlled

COc1cc([C@H]2Oc3c(OC)cc(/C=C/c4cc(O)cc(O)c4)cc3[C@@H]2c2cc(O)cc(O)c2)ccc1O [compound 65]
activity on Mm-inf (in words) ([1]; at 20 μM): pro-infective activity

Oc1ccc(-c2oc3ccc(/C=C/c4cc(O)cc(O)c4)cc3c2-c2cc(O)cc(O)c2)cc1 [compound 66]
IC50 [1, 6]: 29.7 µM | activity at 20 µM [1, 10]: 55% | IC50 [3]: 26.2 µM

COc1cc(OC)cc(-c2c(-c3ccc(O)cc3)oc3ccc(/C=C/c4cc(O)cc(O)c4)cc23)c1 [compound 67]
IC50 [1, 6]: 19.6 µM

COc1cc(/C=C/c2ccc3oc(-c4ccc(O)cc4)c(-c4cc(O)cc(O)c4)c3c2)cc(OC)c1 [compound 68]
IC50 [1, 6]: 20.1 µM

COc1cc(/C=C/c2ccc3oc(-c4ccc(O)cc4)c(-c4cc(OC)cc(OC)c4)c3c2)cc(OC)c1 [compound 69]
activity on Mm-inf (in words) ([1]; dose-response curve): remained inactive

CC[C@@H](CO)NCCN[C@@H](CC)CO [ethambutol, reference compound]
IC50 [1, 6]: 7 µM | activity on Mm-inf (in words) [1, 7]: sterilizing activity | MIC [1, 11]: 6.1 µg/mL | MIC [1, 12]: 30 µM | breakpoint of antibacterial susceptibility for Mm (Mm [5]; [13]): 4 µg/mL | IC50 ([2]; 72 h): 1 µM | MIC [2, 14]: 3.3 µM | activity on Mm-broth (in words) [2]: sterilizing activity

CCc1cc(C(N)=S)ccn1 [ethionamide]
IC50 [1, 6]: 4 µM | activity on Mm-inf (in words) [1, 7]: sterilizing activity | breakpoint of antibacterial susceptibility for Mm (Mm [5]; ref Lorian, 2005): 5 µg/mL | IC50 ([2]; 72 h): 0.8 µM | MIC ([2]; 72 h, read-out: MIC Mm-broth): 3.3 µM | activity on Mm-broth (in words) [2]: sterilizing activity

NNC(=O)c1ccncc1 [isoniazid, reference compound]
IC50 [1, 6]: 11 µM | activity on Mm-inf (in words) [1, 7]: sterilizing activity | pro-infective effect on Mm-inf (in words) [1]: slight pro-infective effect | MIC [1, 11]: 4.1 µg/mL | MIC [1, 12]: 30 µM | IC50 ([2]; 72 h): 10 µM | MIC [2, 14]: 30 µM | MIC ([2]; converted from μM, read-out: MIC in broth): 4.1 µg/mL | activity on Mm-broth (in words) [2]: sterilizing activity

NC(=O)c1cnccn1 [pyrazinamide, reference compound]
pro-infective effect on Mm-inf (in words) [1]: slight pro-infective effect | activity on Mm-inf (in words) ([1]; dose-response curve): lack of activity; also recorded: no activity against Mm | activity on Mm in broth (in words) [2]: no activity against Mm

CO[C@H]1/C=C/O[C@@]2(C)Oc3c(C)c(O)c4c(c3C2=O)C2=NC3(CCN(CC(C)C)CC3)NC2=C(NC(=O)/C(C)=C\C=C\[C@H](C)[C@H](O)[C@@H](C)[C@@H](O)[C@@H](C)[C@H](OC(C)=O)[C@@H]1C)C4=O [rifabutin]
IC50 [1, 6]: 0.2 µM | activity on Mm-inf (in words) [1, 7]: sterilizing activity | breakpoint of antibacterial susceptibility for Mm (Mm [5]; [13]): 2 µg/mL | activity on Dd growth, Dd-inf (in words) ([3]; dose-response curve): affected amoebae growth slightly at the highest tested concentrations | IC50 ([2]; 72 h): 0.03 µM | MIC ([2]; 72 h, read-out: MIC Mm-broth): 0.01 µM | activity on Mm-broth (in words) [2]: sterilizing activity

CO[C@H]1/C=C/O[C@@]2(C)Oc3c(C)c(O)c4c(O)c(c(/C=N/N5CCN(C)CC5)c(O)c4c3C2=O)NC(=O)/C(C)=C\C=C\[C@H](C)[C@H](O)[C@@H](C)[C@@H](O)[C@@H](C)[C@H](OC(C)=O)[C@@H]1C [rifampicin, reference compound]
IC50 [1, 6]: 5 µM | activity on Mm-inf (in words) [1, 7]: sterilizing activity | MIC [1, 12]: 10 µM | activity on Dd growth, Dd-inf (in words) ([3]; dose-response curve): affected amoebae growth slightly at the highest tested concentrations | IC50 ([2]; 72 h): 0.1 µM | MIC [2, 14]: 1.1 µM | activity on Mm-broth (in words) [2]: sterilizing activity
